The test system of one experiment is MKN1 cells. In words: Cisbio HTRF Advanced pERK assay. To be noted: 3 hour, read-out: Inhibition (HTRF IC50 nM) of KRas-mediated Phosphorylation of ERK, MKN1. Type of experiment: cell-based. As for the experimental part: (§1) Cisbio HTRF Advanced pERK Assay Catalog #64AERPEH • Cells: MKN1, PSN1 • Procedure: • Day 1: Seed 6,000 cells/well −25 μl/well in 384-well white solid bottom plate; RPM1_10% FBS.

The next experiment concerns H727 cells. As to the kind of experiment: Cisbio HTRF Advanced pERK assay. The format is cell-based. To be noted: 3 hrs, read-out: Inhibition (HTRF IC50 nM) of KRas-mediated Phosphorylation of ERK, H727. (In general: Time-resolved FRET reads energy transfer from a long-lived donor to a nearby acceptor.)
Another experiment relates to ASPC1 cells. As to the kind of experiment: Cisbio HTRF Advanced pERK assay. To be noted: AsPC-1 cells, 3 hrs, read-out: Inhibition (HTRF IC50 nM) of KRas-mediated Phosphorylation of ERK, AsPC-1. The format is cell-based.
The next experiment deals with PSN1 cells. In words: Cisbio HTRF Advanced pERK assay. The format is cell-based. To be noted: 3 hour, read-out: Inhibition (HTRF IC50 nM) of KRas-mediated Phosphorylation of ERK, PSN1. As to the method: as §1
The target in a further experiment is KRas^G13D (Homo sapiens, UniProt P01116, G13D). In words: biochemical.
Another experiment concerns the target KRas^G12R (Homo sapiens, UniProt P01116, G12R). In words: KRas binding assay (TR-FRET displacement).
For a further experiment, the target named is KRas^G12V (Homo sapiens, UniProt P01116, G12V). As to the kind of experiment: KRas binding assay (TR-FRET displacement).
The target of a further experiment is KRas^Q61H (Homo sapiens, UniProt P01116, Q61H). As to the kind of experiment: biochemical.

Usually IC50 stands for the midpoint of a concentration-inhibition curve.

KRas^G12V, sequence (P01116 1-169 isoform P01116-2 G12V): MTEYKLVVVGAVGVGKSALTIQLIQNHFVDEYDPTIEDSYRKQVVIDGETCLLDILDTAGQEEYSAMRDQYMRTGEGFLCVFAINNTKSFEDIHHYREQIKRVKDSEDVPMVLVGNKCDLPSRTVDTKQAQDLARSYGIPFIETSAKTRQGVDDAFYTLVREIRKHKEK
KRas^G13D, sequence (P01116 1-169 isoform P01116-2 G13D): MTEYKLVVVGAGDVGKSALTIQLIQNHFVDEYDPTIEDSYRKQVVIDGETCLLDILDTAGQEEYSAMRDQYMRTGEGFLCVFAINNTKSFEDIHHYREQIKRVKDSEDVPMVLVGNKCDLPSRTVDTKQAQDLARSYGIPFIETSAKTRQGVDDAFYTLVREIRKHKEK
KRas^G12R, sequence (P01116 1-169 isoform P01116-2 G12R): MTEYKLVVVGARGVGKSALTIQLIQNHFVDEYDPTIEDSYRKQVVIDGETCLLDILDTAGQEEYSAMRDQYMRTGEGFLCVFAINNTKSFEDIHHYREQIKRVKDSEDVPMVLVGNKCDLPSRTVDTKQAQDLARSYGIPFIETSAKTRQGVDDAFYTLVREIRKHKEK
KRas^Q61H, sequence (P01116 1-169 isoform P01116-2 Q61H): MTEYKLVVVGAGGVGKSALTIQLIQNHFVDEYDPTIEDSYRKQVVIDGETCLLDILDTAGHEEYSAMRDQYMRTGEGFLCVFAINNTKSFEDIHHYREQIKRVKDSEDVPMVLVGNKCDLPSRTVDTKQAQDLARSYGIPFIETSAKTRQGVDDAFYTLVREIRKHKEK

As for `Oc1cc(N2CCc3c(nc(OC[C@@]45CCCN4C[C@H](F)C5)nc3N3CC4CC(O)CC3C4)C2)c2c(Cl)c(F)ccc2c1` (single isomer, unassigned) [Example 76], the results for the IC50 in the experiment on MKN1 cells, in the experiment on H727 cells and in the experiment with ASPC1 cells were 468 nM, 1780 nM and 2070 nM, respectively. As for `Oc1cc(N2CCc3c(nc(OC[C@@]45CCCN4C[C@H](F)C5)nc3N3CC4CC(O)CC3C4)C2)c2c(Cl)c(F)ccc2c1` (single isomer, unassigned) [Example 77], the half-inhibitory concentration (IC50) with MKN1 cells is 2660 nM; in the experiment with PSN1 cells, not below 10000 nM; in the experiment with H727 cells it was 8300 nM; in the experiment with ASPC1 cells, 9110 nM. As for `Oc1cc(N2CCc3c(nc(OC[C@@]45CCCN4C[C@H](F)C5)nc3N3CC4CC(O)CC3C4)C2)c2c(Br)c(F)ccc2c1` (single isomer, unassigned) [Example 213], the figures for the IC50 in the experiment with MKN1 cells, with H727 cells and with ASPC1 cells were 148 nM, 1170 nM and 1740 nM, respectively.

Take `Oc1cc(N2CCc3c(nc(OC[C@@]45CCCN4C[C@H](F)C5)nc3N3CC4CC(O)CC3C4)C2)c2c(Br)c(F)ccc2c1` (single isomer, unassigned) [Example 214]: the IC50 is 1700 nM in the experiment with MKN1 cells, not below 10000 nM with PSN1 cells, 7430 nM in the experiment on H727 cells and not below 10000 nM with ASPC1 cells. `CCc1c(F)ccc2cc(O)cc(N3CCc4c(nc(OC[C@@]56CCCN5C[C@H](F)C6)nc4N4CCC[C@@](C)(O)C4)C3)c12` [Example 2, (R)-1-(7-(8-ethyl-7-fluoro-3-hydroxynaphthalen-1-yl)-2-(((2R,7aS)-2-fluorohexahydro-1H-pyrrolizin-7a-yl)methoxy)-5,6,7,8-tetrahydropyrido[3,4-d]pyrimidin-4-yl)-3-methylpiperidin-3-ol] had an IC50 on KRas^G13D not above 2 nM. In turn, `CCc1c(F)ccc2cc(O)cc(N3CCc4c(nc(OC[C@@]56CCCN5C[C@H](F)C6)nc4N4CCOCC(C)(O)C4)C3)c12` (stereo partly drawn) [Example 20, 4-(7-(8-ethyl-7-fluoro-3-hydroxynaphthalen-1-yl)-2-(((2R,7aS)-2-fluorohexahydro-1H-pyrrolizin-7a-yl)methoxy)-5,6,7,8-tetrahydropyrido[3,4-d]pyrimidin-4-yl)-6-methyl-1,4-oxazepan-6-ol] had an IC50 at KRas^G12R not above 2 nM. At KRas^G12V, `CCc1c(F)ccc2cc(O)cc(N3CCc4c(nc(OC[C@@]56CCCN5C[C@H](F)C6)nc4N4CC5CC(O)CC4C5)C3)c12` (stereo partly drawn) [Example 35, 6-(7-(8-ethyl-7-fluoro-3-hydroxynaphthalen-1-yl)-2-(((2R,7aS)-2-fluorohexahydro-1H-pyrrolizin-7a-yl)methoxy)-5,6,7,8-tetrahydropyrido[3,4-d]pyrimidin-4-yl)-6-azabicyclo[3.2.1]octan-3-ol] yielded an IC50 not above 2 nM. Still for that read-out and setting: the result for `O=C1NC(=O)C2(CCCN(c3nc(OC[C@@]45CCCN4C[C@H](F)C5)nc4c3CCN(c3cc(O)cc5ccc(F)c(Cl)c35)C4)C2)N1` (stereo partly drawn) [Example 69, 7-(7-(8-chloro-7-fluoro-3-hydroxynaphthalen-1-yl)-2-(((2R,7aS)-2-fluorohexahydro-1H-pyrrolizin-7a-yl)methoxy)-5,6,7,8-tetrahydropyrido[3,4-d]pyrimidin-4-yl)-1,3,7-triazaspiro[4.5]decane-2,4-dione] reads not above 2 nM. Take `CCc1cccc2cccc(N3CCc4c(nc(OCC56CCCN5CCC6)nc4N4CCCC(P(C)(C)=O)C4)C3)c12` (stereo not shown) [Example 112, (1-(7-(8-ethylnaphthalen-1-yl)-2-((tetrahydro-1H-pyrrolizin-7a(5H)-yl)methoxy)-5,6,7,8-tetrahydropyrido[3,4-d]pyrimidin-4-yl)piperidin-3-yl)dimethylphosphine oxide]: on KRas^Q61H, it took 647 nM to reach half-maximal inhibition (IC50). Regarding `CCc1c(F)ccc2cc(O)cc(N3CCc4c(nc(OC[C@@]56CCCN5C[C@H](F)C6)nc4N4CCCn5nc(C(=O)N(C)C)c(C)c5C4)C3)c12` [Example 189, 5-(7-(8-ethyl-7-fluoro-3-hydroxynaphthalen-1-yl)-2-(((2R,7aS)-2-fluorotetrahydro-1H-pyrrolizin-7a(5H)-yl)methoxy)-5,6,7,8-tetrahydropyrido[3,4-d]pyrimidin-4-yl)-N,N,3-trimethyl-5,6,7,8-tetrahydro-4H-pyrazolo[1,5-a][1,4]diazepine-2-carboxamide], the IC50 at KRas^G12V is not above 2 nM. On the same count and under the same terms, the result for `CCc1c(F)ccc2cc(O)cc(N3CCc4c(nc(OC[C@@]56CCCN5C[C@H](F)C6)nc4N4CCCn5nc(C(=O)N6CCCC6)cc5C4)C3)c12` [Example 191, (5-(7-(8-ethyl-7-fluoro-3-hydroxynaphthalen-1-yl)-2-(((2R,7aS)-2-fluorotetrahydro-1H-pyrrolizin-7a(5H)-yl)methoxy)-5,6,7,8-tetrahydropyrido[3,4-d]pyrimidin-4-yl)-5,6,7,8-tetrahydro-4H-pyrazolo[1,5-a][1,4]diazepin-2-yl)(pyrrolidin-1-yl)methanone] reads not above 2 nM; that for `CCc1c(F)ccc2cc(O)cc(N3CCc4c(nc(OCC5(CN(C)C)CC5)nc4N4CCCn5nc(C(=O)N(C)C)cc5C4)C3)c12` [Example 203, 5-(2-((1-((dimethylamino)methyl)cyclopropyl)methoxy)-7-(8-ethyl-7-fluoro-3-hydroxynaphthalen-1-yl)-5,6,7,8-tetrahydropyrido[3,4-d]pyrimidin-4-yl)-N,N-dimethyl-5,6,7,8-tetrahydro-4H-pyrazolo[1,5-a][1,4]diazepine-2-carboxamide], not above 2 nM.

The record behind these values is patent publication US20260035389A1, “TETRAHYDROPYRIDOPYRIMIDINE PAN-KRAS INHIBITORS” (Mirati Therapeutics, Inc., priority 2020, published 2026).
